Where two headings read alike, the source gives them in different places.
Columns and labels:
[1] = tested on: platelet aggregation induced by adenosine diphosphate; assay: In-vitro platelet aggregation in platelet-rich plasma induced by adenosine diphosphate; format: cell-based, domestic rabbits; details: rabbit PRP, ADP 25 μmol/L, vs 1% dimethyl sulfoxide control
Protocol: After domestic rabbits were locally anesthetized with procaine, common carotid artery was surgically separated, blood was collected and anticoagulated with 3.8% sodium citrate, the anticoagulated blood was centrifuged at 800 r/min for 10 min to prepare platelet-rich plasma (PRP), the remaining part was centrifuged at […] for 10 min to prepare platelet-poor plasma (PPP), and a platelet aggregation experiment was performed. 265 μL of PRP and 30 μL of icaritin were added to a test tube (to enable final concentrations of the icaritin to be 0.1 mmol/L, 0.5 mmol/L, and 5 mmol/L separately), incubation was performed for 5 min, 5 μL of adenosine diphosphate (at a final concentration of 25 μmol/L) was added as an inducer, and a maximum aggregation rate within 5 min was observed and recorded. 1% by mass of dimethyl sulfoxide was used as a control and a promoting effect of the icaritin of each concentration on platelet aggregation induced by adenosine diphosphate was observed.

[2] = tested on: prolonged bleeding time caused by heparin sodium; assay: Tail-cut bleeding time in mice, prolonged by heparin sodium; format: in vivo, ICR mice; details: heparin sodium 150 U/kg i.v.
Excerpt: 72 ICR mice aged 5-6 weeks, weighing 19-21 g, and half male and half female were selected. The mice were quarantined for 7 days after entering a laboratory and healthy mice were selected as test animals. The mice were weighed on first and last days of quarantine. According to the body weight on the last day of the quarantine, the male and female animals were divided into six groups by a simplified random method, namely, a normal group (C), a model group (V), low-, medium- and high-dose icaritin groups (2, 6, and 18 mg/kg, L, M, H) and a positive control drug group (200 mg/kg of etamsylate, P).
After 15 min of the modeling, the tails of the mice were cut and bleeding time of each mouse was measured.

[3] = mouse, in vivo
Protocol: After the grouping, the mice in the normal group and the model group were intragastrically administrated with 10 ml/kg of an icaritin solvent which was prepared by adding 12 g of hypromellose E5 and 0.1 g of sodium lauryl sulfate into 1 L of water. […] One hour after the last pre-administration, the mice in the model group and each administration group were injected with 150 U/kg of a heparin sodium injection through a tail vein to establish a model, and the mice in the normal group were injected with 10 ml/kg of a sodium chloride injection through a tail vein.
After the bleeding time was detected, the mice were anesthetized with sodium pentobarbital, blood was collected from an abdominal cardinal vein, and indicators of blood routine examination and four coagulation indicators (prothrombin time, thromboplastin time, thrombin time, and fibrinogen) were detected.

[4] = tested on: hemorrhagic transformation model induced by clopidogrel combined with cerebral ischemia-reperfusion; assay: Hemorrhagic transformation after cerebral ischemia-reperfusion (MCAO) caused by clopidogrel, bleeding rate; format: in vivo, ICR mice; details: for Number of animals with cerebral hemorrhage: 24 h after MCAO; for Bleeding rate %: model group 80.0
Protocol: (§1) 5-week-old ICR male mice were fed to 6-week-old and divided into a control group, a model group, an icaritin-3 mg/kg group, an icaritin-6 mg/kg group, an icaritin-12 mg/kg group, and an icariin-12 mg/kg group according to body weight. From day 1 to day 3 after the grouping, the mice in each icaritin group were separately intragastrically administrated with 3, 6, and 12 mg/kg of icaritin and the mice in the icariin group was intragastrically administrated with 12 mg/kg of icariin once a day, and the mice in other groups were intragastrically administrated with a corresponding vehicle; and except the control group, the mice in other groups were intragastrically administrated with aspirin (100 mg/kg) or clopidogrel (15 mg/kg) once a day at a volume of 10 mL/kg.
(§2) On day 3, 10 min after the administration, the mice were anesthetized by intraperitoneal injection of 70 mg/kg of pentobarbital sodium and subjected to a cerebral ischemia-reperfusion (middle cerebral artery occlusion, MCAO) surgery with ischemia for 1 h and reperfusion for 23 h.
(§3) 24 h after the surgery was an end point of the experiment.
(§4) Bleeding rate: the mice were anesthetized by intraperitoneal injection of 70 mg/kg of pentobarbital sodium, a brain tissue was taken out, cerebral hemorrhage was recorded and a bleeding rate of the mice in each group was calculated. Cerebral hemorrhage rate %=number of animals with cerebral hemorrhage/number of surviving animals in each group×100.

[5] = tested on: hemorrhagic transformation model induced by aspirin combined with cerebral ischemia-reperfusion; assay: Hemorrhagic transformation after cerebral ischemia-reperfusion (MCAO) caused by aspirin, bleeding rate; format: in vivo, ICR mice; details: for Number of animals with cerebral hemorrhage: 24 h after MCAO; for Bleeding rate %: model group 85.7
Protocol: as §1, §2, §3, §4

[6] = Blood routine examination of rats before/after icaritin (Efficacy Example 1); format: in vivo, SD rats
Protocol: Twenty-four rats were taken and divided into 3 groups with 8 rats in each group. […] 1.0 mL of blood was collected from the orbits before administration and 20 min after a last administration, wherein 0.5 mL was used for a blood routine examination and 0.5 mL was used to prepare anticoagulated blood. The blood was treated and analyzed on the flow cytometer according to the detection method of platelet activation by flow cytometry. An activation rate of platelets activated by adenosine diphosphate (basic value) before administration and an activation rate of platelets activated by adenosine diphosphate after administration were compared. At the same time, 50 μL of anticoagulated blood was taken from the rats before administration, adenosine diphosphate was not added, and a spontaneous activation rate of the anticoagulated blood of animals was measured using the same method. The animals were fasted for 16-24 h before each blood sampling.

COc1ccc(-c2oc3c(CC=C(C)C)c(O)cc(O)c3c(=O)c2O)cc1 [Icaritin]
Aggregation-promoting rate ([1]; 0.1 mmol/L): 23.3 ± 4.5%
Aggregation-promoting rate ([1]; 0.5 mmol/L): 38.9 ± 8.7%
Aggregation-promoting rate ([1]; 5 mmol/L): 52.2 ± 9.0%
Bleeding time ([2]; group H, 18 mg/kg i.g. once a day 5 days): 15.9 ± 6.6^$ $ & min
Bleeding time ([2]; group L, 2 mg/kg i.g. once a day 5 days, tail cut 15 min after modeling): 26.4 ± 8.8^$ min
Bleeding time ([2]; group M, 6 mg/kg i.g. once a day 5 days): 22.7 ± 9.1^$ min
Number of erythrocytes ([3]; 2 mg/kg): 7.109 ± 0.656 10^12/L
Number of leukocytes ([3]; 2 mg/kg): 1.895 ± 0.207 10^9/L
Number of platelets ([3]; 2 mg/kg): 1046 ± 136 10^9/L
Number of erythrocytes ([3]; 6 mg/kg): 7.111 ± 0.634 10^12/L
Number of leukocytes ([3]; 6 mg/kg): 1.934 ± 0.199 10^9/L
Number of platelets ([3]; 6 mg/kg): 1110 ± 128 10^9/L
Number of erythrocytes ([3]; 18 mg/kg): 7.090 ± 0.761 10^12/L
Number of leukocytes ([3]; 18 mg/kg): 1.888 ± 0.223 10^9/L
Number of platelets ([3]; 18 mg/kg): 1059 ± 170 10^9/L
Number of animals with cerebral hemorrhage ([4]; 3 mg/kg i.g. Day 1-3 with clopidogrel 15 mg/kg, of 7 animals): 3
Bleeding rate % ([4]; 3 mg/kg i.g. Day 1-3 with clopidogrel 15 mg/kg): 42.9%
Number of animals with cerebral hemorrhage ([4]; 6 mg/kg i.g. Day 1-3 with clopidogrel 15 mg/kg, of 8 animals): 2
Bleeding rate % ([4]; 6 mg/kg i.g. Day 1-3 with clopidogrel 15 mg/kg): 25.0%
Number of animals with cerebral hemorrhage ([4]; 12 mg/kg i.g. Day 1-3 with clopidogrel 15 mg/kg, of 8 (icaritin) or 7 (icariin) animals): 2
Bleeding rate % ([4]; 12 mg/kg i.g. Day 1-3 with clopidogrel 15 mg/kg): 25.0%
Number of animals with cerebral hemorrhage ([5]; 3 mg/kg i.g. Day 1-3 with aspirin 100 mg/kg, of 8 animals): 3
Bleeding rate % ([5]; 3 mg/kg i.g. Day 1-3 with aspirin 100 mg/kg): 37.5%
Number of animals with cerebral hemorrhage ([5]; 6 mg/kg i.g. Day 1-3 with aspirin 100 mg/kg, of 8 animals): 2
Bleeding rate % ([5]; 6 mg/kg i.g. Day 1-3 with aspirin 100 mg/kg): 25.0%
Number of animals with cerebral hemorrhage ([5]; 12 mg/kg i.g. Day 1-3 with aspirin 100 mg/kg, of 9 (icaritin) or 8 (icariin) animals): 2
Bleeding rate % ([5]; 12 mg/kg i.g. Day 1-3 with aspirin 100 mg/kg): 22.2%
Concentration of hemoglobin ([6]; 3 mg/kg i.g. 3 days): 180.5 ± 11.2 g/L
Number of erythrocytes ([6]; 3 mg/kg i.g. 3 days): 7.213 ± 0.554 10^12/L
Number of leukocytes ([6]; 3 mg/kg i.g. 3 days): 1.832 ± 0.154 10^9/L
Number of platelets ([6]; 3 mg/kg i.g. 3 days): 1124 ± 209 10^9/L
Concentration of hemoglobin ([6]; 6 mg/kg i.g. 3 days): 179.0 ± 9.2 g/L
Number of erythrocytes ([6]; 6 mg/kg i.g. 3 days): 6.783 ± 0.871 10^12/L
Number of leukocytes ([6]; 6 mg/kg i.g. 3 days): 1.653 ± 0.421 10^9/L
Number of platelets ([6]; 6 mg/kg i.g. 3 days): 1397 ± 143 10^9/L
Concentration of hemoglobin ([6]; 18 mg/kg i.g. 3 days): 181.6 ± 9.5 g/L
Number of erythrocytes ([6]; 18 mg/kg i.g. 3 days): 7.235 ± 0.656 10^12/L
Number of leukocytes ([6]; 18 mg/kg i.g. 3 days): 1.761 ± 0.335 10^9/L
Number of platelets ([6]; 18 mg/kg i.g. 3 days): 1249 ± 166 10^9/L
